According to ChEMBL document CHEMBL1201862, “PubChem BioAssay data set” (2004):
Blank lines part the entries; values can stand above or below the molecule they belong to. Active and inactive are the calls of the source.

How the values were obtained:
[1] = tested on: INS1; assay: INS-1E survival protection against cytokine death – cell-based, luminescence, retest, dose response (AID 449756); format: functional; conditions: Rattus norvegicus;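 further: cell death triggered by IL-1 beta plus TNF-alpha plus IFN-gamma mixture; protective hits raise ATP signal compared with cytokine alone wells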
[2] = target: T1, DNA repair protein RAD52 homolog (Homo sapiens, UniProt P43351); format: functional, biochemical
T1 sequence (P43351 whole entry): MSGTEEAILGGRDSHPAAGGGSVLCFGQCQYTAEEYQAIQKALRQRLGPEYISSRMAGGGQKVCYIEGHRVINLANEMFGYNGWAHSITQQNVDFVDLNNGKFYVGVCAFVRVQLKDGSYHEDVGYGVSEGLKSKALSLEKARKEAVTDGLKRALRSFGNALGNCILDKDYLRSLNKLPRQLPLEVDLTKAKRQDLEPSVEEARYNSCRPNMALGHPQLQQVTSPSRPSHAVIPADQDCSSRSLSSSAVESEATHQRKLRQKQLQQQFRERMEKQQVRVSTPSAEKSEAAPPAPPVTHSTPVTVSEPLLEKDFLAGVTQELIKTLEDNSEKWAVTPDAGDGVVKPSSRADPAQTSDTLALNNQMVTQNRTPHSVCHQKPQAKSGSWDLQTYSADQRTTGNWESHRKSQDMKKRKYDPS

[3] = target: T2, Alkaline phosphatase, tissue-nonspecific isozyme (Homo sapiens, UniProt P05186); assay: inhibition of tissue-nonspecific alkaline phosphatase – biochemical, dose response (AID 488882); format: functional
T2 sequence (P05186 whole entry): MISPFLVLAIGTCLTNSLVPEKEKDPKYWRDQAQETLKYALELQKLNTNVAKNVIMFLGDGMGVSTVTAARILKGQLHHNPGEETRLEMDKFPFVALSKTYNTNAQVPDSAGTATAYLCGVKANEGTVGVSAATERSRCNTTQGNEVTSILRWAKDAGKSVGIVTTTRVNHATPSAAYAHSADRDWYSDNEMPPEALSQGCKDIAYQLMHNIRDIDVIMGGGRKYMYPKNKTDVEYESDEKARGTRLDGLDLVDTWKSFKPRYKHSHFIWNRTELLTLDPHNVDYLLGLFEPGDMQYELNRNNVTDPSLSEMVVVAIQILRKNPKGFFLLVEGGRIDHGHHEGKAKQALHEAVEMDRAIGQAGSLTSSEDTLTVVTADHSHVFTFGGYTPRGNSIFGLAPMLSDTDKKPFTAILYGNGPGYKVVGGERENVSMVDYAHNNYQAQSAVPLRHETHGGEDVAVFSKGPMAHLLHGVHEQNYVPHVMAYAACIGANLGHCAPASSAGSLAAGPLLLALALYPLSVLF

[4] = target: T3, Intestinal-type alkaline phosphatase (Mus musculus, UniProt P24822); assay: PubChem AID 488874; format: functional
[5] = target: T4, Intestinal-type alkaline phosphatase (Homo sapiens, UniProt P09923); assay: Dose Response confirmation of uHTS hits from a small molecule inhibitors of human intestinal alkaline phosphatase via a luminescent assay. [Related pubchem assays (depositor defined):AID2544, AID2574]; format: functional
[6] = Counterscreen for activators of the function of SWI/SNF related, matrix associated, actin dependent regulator of chromatin, subfamily a, member 2 (SMARCA2, BRM): Luminescence-based cell-based high throughput dose response assay to identify non-selective compounds using the VP16 reporter assay.; format: functional
[7] = Trypanosoma cruzi growth suppression in host cells – NIH3T3 host cells, beta-gal luminescence, confirmation (AID 2044); format: functional, cell-based;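 further: intracellular parasites grown in NIH/3T3 mouse fibroblasts as host cells; luminescent beta-galactosidase reporter signal from transgenic T. cruzi replicating inside host cells; inhibitors lower the luminescence signal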
[8] = target: T4, Intestinal-type alkaline phosphatase; assay: inhibition of human intestinal alkaline phosphatase – biochemical, luminescent, uHTS hits, set 2, dose response (AID 488793); format: functional
[9] = NIH3T3 cell viability loss – ATP luminescence, mouse fibroblasts, counter-screen, dose response (AID 2010); format: functional, cell-based;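 further: cells exposed to compound for about 90 hours before reading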
[10] = target: SWI/SNF-related matrix-associated actin-dependent regulator of chromatin subfamily A member 2 (Homo sapiens, UniProt P51531); assay: Luminescence-based cell-based high throughput dose response assay to identify activators of the function of SWI/SNF related, matrix associated, actin dependent regulator of chromatin, subfamily a, member 2 (SMARCA2, BRM).; format: functional
[11] = target: T5, Zinc finger protein mex-5 (Caenorhabditis elegans, UniProt Q9XUB2); assay: potency of MEX-5 RNA-binding blockers – biochemical, C. elegans, fluorescence polarization, dose response (AID 1960)
T5 sequence (Q9XUB2 whole entry): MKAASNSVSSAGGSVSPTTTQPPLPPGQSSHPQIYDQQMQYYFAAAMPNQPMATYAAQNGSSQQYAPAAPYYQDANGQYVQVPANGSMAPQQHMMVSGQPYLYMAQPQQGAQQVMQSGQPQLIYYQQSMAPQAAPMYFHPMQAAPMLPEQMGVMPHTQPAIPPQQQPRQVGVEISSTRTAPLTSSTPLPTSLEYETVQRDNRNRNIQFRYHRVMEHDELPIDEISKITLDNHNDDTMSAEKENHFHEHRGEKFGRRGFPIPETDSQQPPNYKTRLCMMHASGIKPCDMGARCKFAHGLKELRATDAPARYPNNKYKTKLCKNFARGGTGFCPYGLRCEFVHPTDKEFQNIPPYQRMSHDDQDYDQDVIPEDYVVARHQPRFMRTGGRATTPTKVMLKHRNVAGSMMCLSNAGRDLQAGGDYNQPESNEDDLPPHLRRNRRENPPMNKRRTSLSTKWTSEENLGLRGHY

[12] = target: T6, DNA repair and recombination protein RAD54-like (Homo sapiens, UniProt Q92698); assay: RAD54 Holliday junction migration blockers – biochemical, fluorescence, cherry-picked samples, dose series, confirmation (AID 651657); format: functional
T6 sequence (Q92698 whole entry): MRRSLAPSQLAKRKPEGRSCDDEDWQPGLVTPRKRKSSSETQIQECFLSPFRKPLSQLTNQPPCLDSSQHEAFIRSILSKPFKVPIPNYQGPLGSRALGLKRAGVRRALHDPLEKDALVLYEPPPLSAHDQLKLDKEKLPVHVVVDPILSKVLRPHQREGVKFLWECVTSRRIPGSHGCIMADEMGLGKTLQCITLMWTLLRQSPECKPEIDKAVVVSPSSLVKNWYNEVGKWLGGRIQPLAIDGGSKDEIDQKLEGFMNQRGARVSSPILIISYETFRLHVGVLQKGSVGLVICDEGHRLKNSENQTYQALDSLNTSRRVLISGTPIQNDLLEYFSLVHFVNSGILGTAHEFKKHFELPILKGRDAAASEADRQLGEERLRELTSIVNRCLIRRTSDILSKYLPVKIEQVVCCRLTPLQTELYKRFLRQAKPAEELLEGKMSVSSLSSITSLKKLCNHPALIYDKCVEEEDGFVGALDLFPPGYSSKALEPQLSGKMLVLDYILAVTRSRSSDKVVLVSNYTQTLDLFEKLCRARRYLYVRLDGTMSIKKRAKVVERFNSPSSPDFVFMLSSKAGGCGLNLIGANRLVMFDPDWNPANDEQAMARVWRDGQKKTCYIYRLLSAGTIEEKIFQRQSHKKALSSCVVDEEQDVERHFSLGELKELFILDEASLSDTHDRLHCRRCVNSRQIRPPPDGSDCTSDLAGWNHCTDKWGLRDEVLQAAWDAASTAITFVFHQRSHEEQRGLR

[13] = target: T7, RNA-binding protein pos-1 (Caenorhabditis elegans, UniProt G5EF15); assay: disruptors of C. elegans POS-1 RNA interaction – biochemical, fluorescence polarization, dose response (AID 1964);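 further: purified POS-1 fused to maltose binding protein made in E. coli; potency of compounds blocking POS-1 binding to fluorescent RNA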
T7 sequence (G5EF15 whole entry): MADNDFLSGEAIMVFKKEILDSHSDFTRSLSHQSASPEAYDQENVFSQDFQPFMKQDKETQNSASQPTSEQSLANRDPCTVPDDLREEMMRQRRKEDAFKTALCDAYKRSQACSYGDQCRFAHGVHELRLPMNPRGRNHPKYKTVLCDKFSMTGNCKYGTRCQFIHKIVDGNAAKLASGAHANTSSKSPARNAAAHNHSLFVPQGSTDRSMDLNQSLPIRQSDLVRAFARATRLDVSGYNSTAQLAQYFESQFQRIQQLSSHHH

[14] = target: T8, CAAX prenyl protease 2 (Saccharomyces cerevisiae S288c, UniProt Q03530); format: biochemical
T8 sequence (Q03530 whole entry): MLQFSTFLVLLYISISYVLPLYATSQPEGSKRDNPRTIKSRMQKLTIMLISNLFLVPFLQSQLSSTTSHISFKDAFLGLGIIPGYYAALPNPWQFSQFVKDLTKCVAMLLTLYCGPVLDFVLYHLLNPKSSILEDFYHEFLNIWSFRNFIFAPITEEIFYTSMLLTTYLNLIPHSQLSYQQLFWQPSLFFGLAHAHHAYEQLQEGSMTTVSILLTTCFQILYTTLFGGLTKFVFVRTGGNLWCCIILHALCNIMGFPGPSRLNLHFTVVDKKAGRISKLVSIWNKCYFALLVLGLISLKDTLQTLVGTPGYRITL

[15] = target: CAAX prenyl protease 1 (Saccharomyces cerevisiae S288c, UniProt P47154); assay: yeast CAAX protease Ste24 inhibition – biochemical, S. cerevisiae, plate reader, cherry-pick, dose response (AID 488815)
[16] = target: T2, Alkaline phosphatase, tissue-nonspecific isozyme; assay: TNAP enzyme inhibition by screening hits, dose response, selectivity assay for mouse IAP inhibitor project, biochemical, human TNAP, uHTS hits (AID 488906); format: functional
[17] = target: T3, Intestinal-type alkaline phosphatase; assay: PubChem AID 488785; format: functional
[18] = target: Albumin (Bos taurus, UniProt P02769); assay: Counterscreen for inhibitors of T-cell receptor (TCR)-CD3 interaction: Fluorescence-based biochemical high throughput dose response assay to identify inhibitors of T-cell receptor (TCR)-CD3 interaction using a TAMRA-labeled BSA probe.; format: functional
[19] = target: FAD-linked sulfhydryl oxidase ALR (Homo sapiens, UniProt P55789); assay: ALR-catalysed DTT oxidation blockers – biochemical, H2O2 detection, luminescence, cherry-pick, dose response (AID 493248)
[20] = target: T4, Intestinal-type alkaline phosphatase; assay: inhibition of human intestinal alkaline phosphatase – biochemical, dose response (AID 488876); format: functional
[21] = target: T9, Ubiquitin-conjugating enzyme E2 N (Homo sapiens, UniProt P61088); format: functional;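 further: Dose-response confirmation in a TR-FRET assay detecting UBC13-driven polyubiquitin chain formation, inhibition measured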
T9 sequence (P61088 whole entry): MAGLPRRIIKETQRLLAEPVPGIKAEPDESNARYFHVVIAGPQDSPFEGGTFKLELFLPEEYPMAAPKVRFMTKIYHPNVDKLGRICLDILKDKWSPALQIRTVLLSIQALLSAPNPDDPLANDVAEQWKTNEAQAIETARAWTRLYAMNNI

[22] = target: Hepatocyte nuclear factor 4-alpha (Homo sapiens, UniProt P41235); format: functional, cell-based;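 further: biochemical luminescence-based dose-response counterscreen measuring inhibition of HNF4 dimerization, run alongside a screen for blockers of ABHD5–perilipin-5 interaction; split luciferase complementation of HNF4 fusion proteins in cell lysate measuring dimerization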
[23] = target: T10, Cytochrome P450 1A2 (Homo sapiens, UniProt P05177);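 further: PubChem cytochrome P450 panel assay, CYP1A2 panel member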
T10 sequence (P05177 whole entry): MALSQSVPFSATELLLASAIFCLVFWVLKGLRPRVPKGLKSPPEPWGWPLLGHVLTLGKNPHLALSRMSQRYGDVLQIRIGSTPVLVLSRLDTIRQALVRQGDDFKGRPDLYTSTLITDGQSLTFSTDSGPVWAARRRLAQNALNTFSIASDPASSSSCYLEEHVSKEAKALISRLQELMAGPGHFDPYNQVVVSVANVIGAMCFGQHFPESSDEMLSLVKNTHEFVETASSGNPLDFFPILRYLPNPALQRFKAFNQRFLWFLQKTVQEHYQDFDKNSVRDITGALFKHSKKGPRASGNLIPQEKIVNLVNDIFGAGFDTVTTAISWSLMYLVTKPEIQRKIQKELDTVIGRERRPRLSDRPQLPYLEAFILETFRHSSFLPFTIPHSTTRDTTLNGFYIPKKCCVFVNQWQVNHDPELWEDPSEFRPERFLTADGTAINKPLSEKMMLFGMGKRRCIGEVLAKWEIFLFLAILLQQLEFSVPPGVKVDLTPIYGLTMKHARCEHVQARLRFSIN

T4 sequence (P09923 whole entry): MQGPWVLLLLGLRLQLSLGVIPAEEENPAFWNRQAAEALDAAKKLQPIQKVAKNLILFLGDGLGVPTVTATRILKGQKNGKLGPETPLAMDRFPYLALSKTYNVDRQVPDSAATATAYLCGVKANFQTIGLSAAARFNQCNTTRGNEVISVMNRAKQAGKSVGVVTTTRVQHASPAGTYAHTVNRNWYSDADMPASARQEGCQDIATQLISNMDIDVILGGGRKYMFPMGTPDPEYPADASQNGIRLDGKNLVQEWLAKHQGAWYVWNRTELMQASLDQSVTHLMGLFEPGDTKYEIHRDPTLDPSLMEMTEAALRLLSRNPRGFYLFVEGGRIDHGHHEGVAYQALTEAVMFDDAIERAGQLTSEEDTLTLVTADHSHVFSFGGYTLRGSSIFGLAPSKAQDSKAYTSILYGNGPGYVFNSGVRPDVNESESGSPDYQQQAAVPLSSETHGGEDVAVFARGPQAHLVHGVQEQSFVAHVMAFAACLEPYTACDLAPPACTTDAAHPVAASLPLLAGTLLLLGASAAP
T3 sequence (P24822 whole entry): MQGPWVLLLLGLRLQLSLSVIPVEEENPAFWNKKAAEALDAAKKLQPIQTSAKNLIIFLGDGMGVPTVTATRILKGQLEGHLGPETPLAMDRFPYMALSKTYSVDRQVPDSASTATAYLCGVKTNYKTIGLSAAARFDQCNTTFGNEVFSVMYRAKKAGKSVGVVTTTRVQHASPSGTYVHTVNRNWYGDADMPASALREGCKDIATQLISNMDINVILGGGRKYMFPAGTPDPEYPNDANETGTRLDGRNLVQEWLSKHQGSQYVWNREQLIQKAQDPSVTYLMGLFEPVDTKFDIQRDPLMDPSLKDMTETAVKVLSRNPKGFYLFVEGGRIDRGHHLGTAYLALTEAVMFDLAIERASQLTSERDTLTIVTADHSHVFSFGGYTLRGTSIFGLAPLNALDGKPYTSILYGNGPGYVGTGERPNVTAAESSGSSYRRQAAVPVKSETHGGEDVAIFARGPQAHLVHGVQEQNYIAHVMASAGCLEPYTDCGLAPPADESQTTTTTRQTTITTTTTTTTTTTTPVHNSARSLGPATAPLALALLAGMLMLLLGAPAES
Chain of Hepatocyte nuclear factor 4-alpha (P41235 whole entry, the tested form may be a part): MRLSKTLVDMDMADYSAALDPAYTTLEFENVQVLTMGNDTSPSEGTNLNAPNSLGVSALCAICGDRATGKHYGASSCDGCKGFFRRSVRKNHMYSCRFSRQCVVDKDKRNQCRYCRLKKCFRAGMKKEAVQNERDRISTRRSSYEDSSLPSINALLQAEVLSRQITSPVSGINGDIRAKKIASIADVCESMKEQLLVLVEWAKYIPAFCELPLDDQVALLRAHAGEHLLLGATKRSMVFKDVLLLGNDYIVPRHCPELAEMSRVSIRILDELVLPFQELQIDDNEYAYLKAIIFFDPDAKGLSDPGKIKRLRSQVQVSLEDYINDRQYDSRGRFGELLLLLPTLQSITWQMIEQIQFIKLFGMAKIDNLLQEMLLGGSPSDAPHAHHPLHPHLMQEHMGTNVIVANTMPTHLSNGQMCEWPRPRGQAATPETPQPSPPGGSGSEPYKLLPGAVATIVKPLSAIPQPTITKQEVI
Chain of Albumin (P02769 whole entry): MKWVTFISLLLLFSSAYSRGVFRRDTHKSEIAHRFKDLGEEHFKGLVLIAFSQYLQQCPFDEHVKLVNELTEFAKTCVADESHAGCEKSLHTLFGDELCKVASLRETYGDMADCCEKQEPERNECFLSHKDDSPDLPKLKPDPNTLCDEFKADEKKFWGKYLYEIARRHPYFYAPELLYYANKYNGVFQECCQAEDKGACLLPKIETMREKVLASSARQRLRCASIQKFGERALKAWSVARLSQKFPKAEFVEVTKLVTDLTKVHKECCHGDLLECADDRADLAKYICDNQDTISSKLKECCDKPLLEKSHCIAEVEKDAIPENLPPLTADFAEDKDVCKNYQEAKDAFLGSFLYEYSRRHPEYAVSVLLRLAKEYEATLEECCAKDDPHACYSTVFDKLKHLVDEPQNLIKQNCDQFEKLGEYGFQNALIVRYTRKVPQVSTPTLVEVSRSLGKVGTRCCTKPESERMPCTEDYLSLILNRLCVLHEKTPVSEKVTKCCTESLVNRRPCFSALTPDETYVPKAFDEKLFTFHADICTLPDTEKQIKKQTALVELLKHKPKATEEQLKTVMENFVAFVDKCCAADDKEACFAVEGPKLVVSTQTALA
Chain of SWI/SNF-related matrix-associated actin-dependent regulator of chromatin subfamily A member 2 (P51531 whole entry): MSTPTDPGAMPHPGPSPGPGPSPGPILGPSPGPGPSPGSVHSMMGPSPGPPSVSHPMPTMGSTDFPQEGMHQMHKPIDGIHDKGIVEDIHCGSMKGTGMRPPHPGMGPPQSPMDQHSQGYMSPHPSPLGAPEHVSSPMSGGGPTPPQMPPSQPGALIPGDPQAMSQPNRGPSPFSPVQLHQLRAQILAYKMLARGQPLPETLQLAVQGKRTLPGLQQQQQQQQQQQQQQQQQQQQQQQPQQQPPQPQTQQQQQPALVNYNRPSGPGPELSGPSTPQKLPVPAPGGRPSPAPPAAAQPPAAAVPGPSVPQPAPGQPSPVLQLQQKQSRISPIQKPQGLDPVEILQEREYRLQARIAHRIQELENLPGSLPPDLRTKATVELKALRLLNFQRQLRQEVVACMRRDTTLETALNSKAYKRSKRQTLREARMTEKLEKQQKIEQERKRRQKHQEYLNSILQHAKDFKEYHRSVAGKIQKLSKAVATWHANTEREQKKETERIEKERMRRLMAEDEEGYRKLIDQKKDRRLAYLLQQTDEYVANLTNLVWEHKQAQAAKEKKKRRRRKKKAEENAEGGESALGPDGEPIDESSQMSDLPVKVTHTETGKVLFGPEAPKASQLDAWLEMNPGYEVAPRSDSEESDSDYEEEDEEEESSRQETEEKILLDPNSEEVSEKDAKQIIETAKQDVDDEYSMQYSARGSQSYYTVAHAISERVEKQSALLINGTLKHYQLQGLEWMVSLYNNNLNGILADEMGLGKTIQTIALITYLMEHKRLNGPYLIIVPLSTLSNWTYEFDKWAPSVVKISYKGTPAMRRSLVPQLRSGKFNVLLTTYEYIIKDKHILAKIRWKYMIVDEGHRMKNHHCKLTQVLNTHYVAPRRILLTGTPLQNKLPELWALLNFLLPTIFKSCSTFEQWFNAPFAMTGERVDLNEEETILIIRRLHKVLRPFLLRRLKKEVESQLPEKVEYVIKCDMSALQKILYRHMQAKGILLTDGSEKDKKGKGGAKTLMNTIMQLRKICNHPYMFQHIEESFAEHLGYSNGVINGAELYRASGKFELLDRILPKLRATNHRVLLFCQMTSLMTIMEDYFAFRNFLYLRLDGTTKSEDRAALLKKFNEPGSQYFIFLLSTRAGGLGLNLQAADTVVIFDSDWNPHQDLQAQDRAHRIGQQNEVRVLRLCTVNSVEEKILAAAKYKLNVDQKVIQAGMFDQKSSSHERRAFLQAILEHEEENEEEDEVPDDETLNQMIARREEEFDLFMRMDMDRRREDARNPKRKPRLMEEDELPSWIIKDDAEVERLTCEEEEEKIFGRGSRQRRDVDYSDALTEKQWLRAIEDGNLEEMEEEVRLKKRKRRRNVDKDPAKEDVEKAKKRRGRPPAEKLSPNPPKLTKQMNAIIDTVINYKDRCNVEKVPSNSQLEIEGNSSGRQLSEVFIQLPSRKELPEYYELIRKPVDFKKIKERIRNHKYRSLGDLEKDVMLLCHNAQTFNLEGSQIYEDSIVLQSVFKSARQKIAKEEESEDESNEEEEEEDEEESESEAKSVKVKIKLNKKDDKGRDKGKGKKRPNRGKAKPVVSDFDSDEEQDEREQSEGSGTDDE
Chain of CAAX prenyl protease 1 (P47154 whole entry): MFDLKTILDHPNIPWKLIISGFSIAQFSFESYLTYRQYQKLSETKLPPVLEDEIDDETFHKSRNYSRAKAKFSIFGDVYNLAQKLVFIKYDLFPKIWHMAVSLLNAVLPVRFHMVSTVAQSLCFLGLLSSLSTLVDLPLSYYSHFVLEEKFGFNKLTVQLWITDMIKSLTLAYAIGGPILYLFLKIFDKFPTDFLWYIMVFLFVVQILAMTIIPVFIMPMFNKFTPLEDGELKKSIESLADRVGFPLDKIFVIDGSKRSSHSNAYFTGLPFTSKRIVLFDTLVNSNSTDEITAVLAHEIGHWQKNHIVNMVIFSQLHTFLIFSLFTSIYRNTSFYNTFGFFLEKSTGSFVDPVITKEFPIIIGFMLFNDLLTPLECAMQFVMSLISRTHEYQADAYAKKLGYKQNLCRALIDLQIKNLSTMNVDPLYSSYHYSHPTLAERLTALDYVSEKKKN
Chain of FAD-linked sulfhydryl oxidase ALR (P55789 whole entry): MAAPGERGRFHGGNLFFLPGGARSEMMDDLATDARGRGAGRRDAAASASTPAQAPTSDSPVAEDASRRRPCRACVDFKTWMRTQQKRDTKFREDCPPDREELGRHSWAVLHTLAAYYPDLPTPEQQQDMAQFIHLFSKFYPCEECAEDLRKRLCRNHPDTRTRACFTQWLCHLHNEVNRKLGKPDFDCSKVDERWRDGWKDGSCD

Compound: COc1ccc2nc3cc(Cl)ccc3c(Nc3cc(CN4CCCC4)c(O)c(CN4CCCC4)c3)c2n1
AC50 [1]: 3.38 µM (active) | AC50 [2]: < 0.351 µM (active) | IC50 [3]: 20.3 µM (active) | IC50 [4]: 40.5 µM (active) | IC50 [5]: 5.61 µM (active) | EC50 [6]: > 91.2 µM (inactive) | EC50 [7]: 0.587 µM (active) | IC50 [8]: 10.5 µM (active) | EC50 [9]: > 16 µM (not active) | EC50 [10]: > 3.38 µM (active) | EC50 [11]: 22 µM (active) | AC50 [12]: 0.791 µM (active) | EC50 [13]: 32.2 µM (active)

AC50 [14]: 23.3 µM (active) | AC50 [15]: 12.7 µM (active)
Compound: COc1ccc(-c2cc(C(F)(F)F)nc(SCC(=O)N(C)Cc3cn(C)nc3C)n2)cc1OC

IC50 [16]: > 100 µM (inactive) | IC50 [17]: 5.77 µM (active) | IC50 [18]: > 94 µM (inactive) | AC50 [19]: < 0.005 µM (active) | IC50 [20]: > 100 µM (inactive) | EC50 [11]: 4.24 µM (active) | EC50 [13]: 24.8 µM (active)
Compound: O=C(N/N=C/c1cccnc1)c1cc(O)c(O)c(O)c1

Compound: CN1[C@@H]2CC[C@H]1C[C@@H](OC1c3ccccc3CCc3ccccc31)C2 [DEPTROPINE]
IC50 [21]: > 20 µM (inactive) | IC50 [22]: 10 µM (inactive) | AC50 [23]: inactive
